These results are taken from patent publication US20020165216A1, “Cobalt-porphyrin complexes and use thereof as an anti-obesity agent” (MitoKor, priority 2000, published 2002).

“Also recorded” adds a separate entry of the source. Where two headings read alike, the source gives them in different places.

Data set [1] is described as follows: Oxygen consumption catalyzed by Co-P in the presence of ascorbate/TMPD (Clark oxygen electrode). The conditions noted are these: 2 mM ascorbate, 40 μM TMPD; for Relative Rate (oxygen consumption), effect of ligand, R5 and A moiety: Table 3. The procedure:
(Co-MP). Such activity can be readily determined by, for example, the assay disclosed in Example 16. In that assay, redox activity is measured by oxygen consumption catalyzed by a Co-P test compound in the presence of ascorbate and TMPD.
Ten mM stock solutions of a Co-P of this invention (i.e., test compound) were prepared using ethanol as solvent. KCl media consists of 125 mM KCl, 2 mM K2HPO4, 20 mM HEPES, pH 7.0. Oxygen consumption measurements were carried out using a Clark type oxygen electrode (Rank Brothers Ltd., Cambridge, UK) and assay solutions were magnetically stirred during the course of the experiments. To 500 μl of assay solution (KCl media supplemented with 2 mM sodium ascorbate and 40 μM […] (TMPD)) is added 2 μl of a stock solution of test compound (40 μM final concentration) and the oxygen consumption rate is followed for 2-4 min. Subsequently, a 5 μl aliquot of a freshly made catalase solution (100 mg/ml solution in KCl media) is added to determine if H2O2 is generated via redox cycling of the test compound.
Initial rates are calculated from oxygen consumption slopes and rate of a solvent control is subtracted. […] An aliquot of a 10 mM stock solution of Co-MP (final concentration of 40 μM) was added to assay buffer containing 2 mM of ascorbate and 40 μM of TMPD. […] Addition of catalase results in conversion of H2O2 present in the assay solution to O2 and H2O.
Stock solutions of the test compound were at 10 mM. Aliquots of the stock solutions were added to 500 μl of assay buffer containing 2 mM of ascorbate and 40 μM of TMPD.
Representative Co-P compounds of this invention were prepared by the procedures disclosed above, and assayed by the procedure of Example 16 to measure oxygen consumption catalyzed by the test compound in the presence of ascorbate/TMPD. […] The above procedure was then repeated for other representative Co-P compounds of this invention, but utilizing different ligands and/or R groups.

The target of data set [2] is reduced cytochrome c (Homo sapiens, UniProt P99999). Briefly: Oxidation of reduced cytochrome c by Co-PP. The following applies: reduced cytochrome c 5.3, 10.5, 26 μM; 0-100 μM CoPP; absorbance at 550 nm. The data set is classed as biochemical. The procedure: Reduced cytochrome c was prepared by the addition of an excess of ascorbic acid to a solution of cytochrome c and allowing the solution to stand for 5 to 10 minutes. The reduced protein was purified over a Sephadex G50 column and checked spectrophotometrically by measuring absorbance at 550 nm, followed by the addition of a few grains of dithionite and measuring absorbance again at 550 nm. […] Initial rates of oxidation of reduced cytochrome c at three concentrations (5.3 μM, 10.5 μM and 26 μM) were followed in the presence of 0, 5,10, 20 and 100 μM CoPP. Assays were conducted in 1 ml of assay buffer (20 mM potassium phosphate, pH 7.0, 0.2 mg/ml dodecyl-β-maltoside) and initiated by the addition of desired concentration of reduced cytochrome c and monitoring the change in absorbance at 550 nm for 90 seconds. The fully oxidized absorbance value was determined by the addition of a few grains of ferricyanide to the cuvette. […] In a biological system, Co-PP can transfer electrons from an electron rich donor/reductant to molecular oxygen, O2, to generate reactive oxygen species, the production of which can be toxic to cells and give rise to undesirable side effects (e.g. oxidative stress).
reduced cytochrome c, sequence (P99999 whole entry): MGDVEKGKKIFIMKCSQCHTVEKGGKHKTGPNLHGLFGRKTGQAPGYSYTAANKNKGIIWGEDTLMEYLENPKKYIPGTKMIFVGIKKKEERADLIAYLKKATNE

Data set [3] deals with SH-SY5Y neuroblastoma cells. In words: Cellular assay for generation of reactive oxygen species (ROS). The data set is classed as cell-based. The conditions noted are these: 30 minutes with test compound. The procedure:
All cell culture reagents were incubated in a water bath at 37° C. for approximately 30 minutes. Existing media from a near confluent tissue culture flask containing SH-SY5Y neuroblastoma cells was aspirated using a flame sterilized glass transfer pipette attached to a trapped vacuum apparatus. Calcium free PBS buffer was pipetted into the tissue culture flask (2 ml for a 75 cm2 flask, 3 ml for a 175 cm^2 flask). The flask was tipped slightly to ensure that the buffer covers the cell culture and then the buffer was removed by aspiration. Trypsin media was pipetted into the tissue culture flask (2 ml for a 75 cm^2 flask, 3 ml for a 175 cm^2 flask) and evenly spread to ensure that the trypsin covered the cell culture. The cell culture was incubated with trypsin media for 4-6 minutes at room temperature. After cells were released from the flask, the flask was tilted to one corner. Using the existing media within the flask, the aggregated cells were collected towards one corner and repeatedly pipetted to obtain a single cell suspension. The cell suspension was transferred with a pipette into a 15 ml conical shaped centrifuge tube then cell culture media was added to the suspension up to a total volume of 14 ml. Ten μl aliquots were withdrawn and the cells were counted using a hemocytometer. The suspension was centrifuged at 200×g for 10 minutes, the supernatant was aspirated off, and the cell pellet was resuspended at 3.75×10^5 cells/ml in cell culture medium. Two hundred μl of cell suspension were aliquoted per well in the 96 well dish to obtain a final cell number of 75,000 cells per well. The plates were incubated overnight at 37° C. and 5% CO2 in a humidified cell incubator.
The medium was carefully removed from the wells by aspiration with an 18 g needle. The wells were gently rinsed once with 200 μl of warm Hanks balanced saline solution (HBSS, Gibco-BRL). […]
Stock solutions of test compound, such as Co-PP, Co-MP, or a Co-P of this invention, and of an H2O2 scavenger such as ebselen, were typically prepared in dimethylformamide or dimethylsulfoxide and diluted further into working concentrations using HBSS. […] The plate was read immediately in Cytofluor model 2350 system (Millipore; excitation wavelength: 485 nm; emission wavelength: 530 nm) for a 0 min timepoint reading. The cells were incubated for 30 minutes at room temperature with test compound following which a 30 min reading was taken. The change in RMF over the 30 minutes period was calculated for each well. […] The plate was then read in the Cytofluor (excitation wavelength: 360 nm; emission wavelength: 460 nm) and the Hoechst fluorescence values were used to normalize the DCFC-DA RMF data.

The conditions of data set [4]: high doses; cited from earlier work.
The conditions of data set [5]: cited from earlier work.
The conditions of data set [6]: cited from earlier work. This is another data set of the same source.
The nature of data set [7]: Lesion severity assay (nuchal injection site). The following applies: scale 0 no lesions to 5 worst lesions; 12 mM, 400 μl per 100 grams body weight, subcutaneous, nuchal area, 8 days. The data set is classed as in vivo, Male Sprague Dawley rats. On the procedure:
Male Sprague Dawley rats (approximately 200 g) were purchased from Charles River Canada, Inc. and were shipped to the Animal Care Facility at the University of Vermont. Upon arrival they were housed in separate cages with corncob bedding and ad lib access to tap water and purina rat chow. The animal facility is maintained at a temperature of 71° F. +/− 1° F. with a 12-hour light/dark cycle, lights on at 6:00 am and off at 6:00 pm. Two days later (Day-3) all rats were shaved in the nuchal area and baseline color photographs of the nuchal area were taken (light halothane anesthesia was utilized to facilitate the shaving). Three days later (Day 0) experimental compounds were made up at 12 mM concentrations in vehicle (i.e., saline:PEG400:EtOH (5:4:1), pH 7.4). Animals were injected subcutaneously in the nuchal area with the various stock solutions at a dose of 400 μl per 100 grams body weight. Typical injection volumes, therefore, range from 1 to 1.5 ml per animal. Animals were injected using a modified Z-track technique to try and minimize outflow of injected compounds due to the high volume utilized. Each animal was weighed prior to injection and all injections were accomplished in an approximately two-hour period. […]
Means of body weights for each group were calculated and plotted over time (FIG. 9A), as were numerical means of the lesion severity index (FIG. 9B). […]

The nature of data set [8]: Weight loss assay. The data set is classed as in vivo, Male Sprague Dawley rats. The conditions noted are these: 12 mM in vehicle, 400 μl per 100 grams body weight, subcutaneous, nuchal area, 8 days. On the procedure:
Male Sprague Dawley rats (approximately 200 g) were purchased from Charles River Canada, Inc. and were shipped to the Animal Care Facility at the University of Vermont. Upon arrival they were housed in separate cages with corncob bedding and ad lib access to tap water and purina rat chow. The animal facility is maintained at a temperature of 71° F. +/− 1° F. with a 12-hour light/dark cycle, lights on at 6:00 am and off at 6:00 pm. Two days later (Day-3) all rats were shaved in the nuchal area and baseline color photographs of the nuchal area were taken (light halothane anesthesia was utilized to facilitate the shaving). Three days later (Day 0) experimental compounds were made up at 12 mM concentrations in vehicle (i.e., saline:PEG400:EtOH (5:4:1), pH 7.4). Animals were injected subcutaneously in the nuchal area with the various stock solutions at a dose of 400 μl per 100 grams body weight. Typical injection volumes, therefore, range from 1 to 1.5 ml per animal. Animals were injected using a modified Z-track technique to try and minimize outflow of injected compounds due to the high volume utilized. Each animal was weighed prior to injection and all injections were accomplished in an approximately two-hour period. No anesthesia was utilized for injections.
Animals subsequently underwent daily weighing with a Mettler 6 second integrating balance and had ad lib access to tap water and purina rat chow. At various intervals after injections, the nuchal area of rats was again photographed. […] The scale used was 0 for no lesions, 5 for the worst lesions with breakdown of the skin and open flow of exudates. Grades in-between were estimated by the operator based on the size and severity of the lesion. […] After 8 days, final photographs were taken and all animals were euthanized, marking the end of the experiment.
Means of body weights for each group were calculated and plotted over time (FIG. 9A), as were numerical means of the lesion severity index (FIG. 9B). In FIGS. 9A and 9B, C=noninjected control, V=vehicle injected control, A=Co-MP, E=Cpd. No. (1-6) and F=Cpd. No. (4-4). […] Cpd.

Setting [9] is: 40 μM test compound, normalized to chloride salt of Co-MP = 1.

As to `C=CC1=C(C)c2cc3[n-]c(cc4nc(cc5[n-]c(cc1n2)c(C)c5CCC(=O)[O-])C(CCC(=O)[O-])=C4C)c(C)c3C=C.[Co+2].[H+].[H+]` [Co-PP, Cobalt protoporphyrin], the “Relative Rate (oxygen consumption), effect of ligand, R5 and A moiety” value in data set [1] (setting [9]) is 2.2. Moreover, in data set [2], the “oxidation of reduced cytochrome c” value is recorded as “serves as an electron acceptor from reduced cytochrome c”. In addition, in data set [3], the “generation of reactive oxygen species (DCFC-DA fluorescence)” value is given as “reactive oxygen species were induced”. In data set [4], the heme oxygenase induction entry is on record as “induction of heme oxygenase” and the oxidative stress result is reported as “oxidative stress has been associated with administration of high doses”. Also, the body weight entry in data set [5] (subcutaneous administration, Zucker rats fa/fa) is reported as “long-sustained reduction in body weight”. Also, in data set [6] (single subcutaneous injection), the body weight entry was “sustained decrease in body weight”, the carcass composition entry was “decreases in carcass fat content without changes in protein content” and the food intake result was “prompt dose-dependent decrease in food intake”. Also, the “food intake and body weight effect” value in data set [6] (smaller doses, intracerebroventricular administration) is given as “elicit the same effect”.
cobalt mesoporphyrin [Co-MP]: the “Relative Rate (oxygen consumption), effect of ligand” value in data set [1] (Table 1, Co-MP with L1 = L2 varied, 40 μM test compound, normalized to chloride salt of Co-MP = 1) is listed as 1 (assigned value). The “Relative Rate (oxygen consumption), effect of ligand and R5 moiety” value in data set [1] (Table 2, 40 μM test compound, normalized to chloride salt of Co-MP = 1) was 1 (assigned value). Further, the “Relative Rate (oxygen consumption), effect of ligand, R5 and A moiety” value in data set [1] (setting [9]) is recorded as 1 (assigned value). The “Relative Rate (oxygen consumption), effect of ligand, R5, A and n moiety” value in data set [1] (Table 4, 40 μM test compound, normalized to chloride salt of Co-MP = 1) is recorded as 1.0 (assigned. Moreover, in data set [1] (cell free ascorbate/TMPD system), the “O2 consumption / redox cycling (in words)” value is “immediate depletion of dissolved O2; also recorded: triggers robust consumption of O2”. For the same compound, the lesion severity result in data set [7] is “greatest lesion severity”. Besides, in data set [3], the “generation of reactive oxygen species (DCFC-DA fluorescence)” value is “reactive oxygen species were induced”. For the same compound, in data set [5] (rat, in vivo), the “body weight regulating effect compared with Co-PP” value is on record as “comparable biological profile”. The body weight response result in data set [8] is given as “greatest body weight response”.
